In patent US12577234B2, “Antagonists of the muscarinic acetylcholine receptor M4” (Vanderbilt University, priority 2017, dated 2026):

Target: T1, human mAChR M4 (Homo sapiens, UniProt P08173)
T1 construct: expressed in transfected cells; host or cells: CHO-K1 (ATCC), stably co-expressing chimeric G protein Gqi5
T1 sequence (P08173 1-479): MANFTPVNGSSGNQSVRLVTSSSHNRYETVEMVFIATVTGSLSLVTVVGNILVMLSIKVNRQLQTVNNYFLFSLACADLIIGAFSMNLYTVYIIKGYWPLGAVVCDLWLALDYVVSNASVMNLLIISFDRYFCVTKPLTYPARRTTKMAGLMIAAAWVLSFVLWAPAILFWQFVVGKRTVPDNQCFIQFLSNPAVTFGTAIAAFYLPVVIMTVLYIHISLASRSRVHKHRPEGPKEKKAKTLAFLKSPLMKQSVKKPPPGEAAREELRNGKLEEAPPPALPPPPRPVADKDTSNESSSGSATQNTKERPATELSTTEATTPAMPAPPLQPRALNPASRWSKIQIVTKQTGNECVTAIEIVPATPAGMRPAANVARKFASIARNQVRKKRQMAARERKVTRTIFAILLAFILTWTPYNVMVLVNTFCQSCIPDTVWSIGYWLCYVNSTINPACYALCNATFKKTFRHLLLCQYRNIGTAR
Experiment: mAChR M4 cell-based functional assay (calcium mobilization, EC80 acetylcholine), human M4
Conditions: for IC50: M4/Gqi5/CHO-K1 cells, decrease of EC80 acetylcholine response; for Emin: human M4, % ACh maximum at 30 μM
Method in brief: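 CHO-K1 cells stably expressing human M4 with chimeric Gqi5; intracellular calcium rise read on FDSS as fluorescence static ratio at 1 Hz. Compounds in 10-point 1:3 dilution series; IC50 taken as concentration-dependent decrease of the EC80 acetylcholine response, four-parameter logistic fit.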

Row | Molecule | IC50 (Table 9) [nM] | Emin (Table 9) [%] | Human M4 Emin (Table 10) [%] | IC50 (Table 10) [nM]
1 | Cc1nn(C)cc1-c1cnc(N[C@H]2C[C@@H]3CN(CC45CC6CC(CC(C6)C4)C5)C[C@@H]3C2)cn1 [Compound 155, (3aR,5s6aS)-2-(1-adamantylmethyl)-N-[5-(1,3-dimethylpyrazol-4-yl)pyrazin-2-yl]-3,3a,4,5,6,6a-hexahydro-1H-cyclopenta[c]pyrrol-5-amine] | – | – | 4 | 15.9
2 | Cc1nn(C)cc1-c1ccc(OCC2C[C@@H]3CN(CC45CC6CC(CC(C6)C4)C5)C[C@@H]3C2)nn1 (stereo partly drawn) [Compound 93, (3aR,6aS)-2-(1-adamantylmethyl)-5-[[6-(1,3-dimethylpyrazol-4-yl)pyridazin-3-yl]oxymethyl]-3,3a,4,5,6,6a-hexahydro-1H-cyclopenta[c]pyrrole] | 82.1 | 4.05 | – | –
3 | Cc1nn(C)cc1-c1ccc(OCC2C[C@@H]3CN(Cc4ccccc4F)C[C@@H]3C2)nn1 (stereo partly drawn) [Compound 101, (3aR,6aS)-5-[[6-(1,3-dimethylpyrazol-4-yl)pyridazin-3-yl]oxymethyl]-2-[(2-fluorophenyl)methyl]-3,3a,4,5,6,6a-hexahydro-1H-cyclopenta[c]pyrrole] | 2540 | 6.60 | – | –
4 | c1cc(-c2ccc(N[C@H]3C[C@@H]4CN(CC5CCOCC5)C[C@@H]4C3)nn2)ccn1 [Compound 219, (3aR,5s,6aS)-N-[6-(4-pyridyl)pyridazin-3-yl]-2-(tetrahydropyran-4-ylmethyl)-3,3a,4,5,6,6a-hexahydro-1H-cyclopenta[c]pyrrol-5-amine] | – | – | 9 | 1.83
5 | Cc1cnn(C)c1-c1ccc(N[C@H]2C[C@@H]3CN(CC4CCCCO4)C[C@@H]3C2)nn1 (stereo partly drawn) [Compound 38, (3aR,5s,6aS)-N-[6-(2,4-dimethylpyrazol-3-yl)pyridazin-3-yl]-2-(tetrahydropyran-2-ylmethyl)-3,3a,4,5,6,6a-hexahydro-1H-cyclopenta[c]pyrrol-5-amine] | 31.8 | 5.45 | – | –
6 | CCC(C)CN1C[C@H]2C[C@H](Nc3ccc(-c4c(C)cnn4C)nn3)C[C@H]2C1 (stereo partly drawn) [Compound 18, (3aR,5s,6aS)-N-[6-(2,4-dimethylpyrazol-3-yl)pyridazin-3-yl]-2-(2-methylbutyl)-3,3a,4,5,6,6a-hexahydro-1H-cyclopenta[c]pyrrol-5-amine] | 90.2 | 2.90 | – | –
7 | (3aR,6aS)-2-(5-bicyclo[2.2.2]oct-2-enylmethyl)-5-[[6-(1,3-dimethylpyrazol-4-yl)pyridazin-3-yl]oxymethyl]-3,3a,4,5,6,6a-hexahydro-1H-cyclopenta[clpyrrole [Compound 94] | 42.6 | 3.67 | – | –
8 | F[C@@H]1CCN(c2ccc(N[C@H]3C[C@@H]4CN(CC5CCOCC5)C[C@@H]4C3)nn2)C1 [Compound 194, (3aR,5s,6aS)-N-[6-[(3S)-3-fluoropyrrolidin-1-yl]pyridazin-3-yl]-2-(tetrahydropyran-4-ylmethyl)-3,3a,4,5,6,6a-hexahydro-1H-cyclopenta[c]pyrrol-5-amine] | – | – | 5 | 12.5
9 | Cc1cnn(C)c1-c1ccc(NC[C@H]2C[C@@H]3CN(CCC(C)(C)C)C[C@@H]3C2)nn1 [Compound 61, N-[[(3aR,5s,6aS)-2-(3,3-Dimethylbutyl)-3,3a,4,5,6,6a-hexahydro-1H-cyclopenta[c]pyrrol-5-yl]methyl]-6-(2,4-dimethylpyrazol-3-yl)pyridazin-3-amine] | 35.6 | 3.12 | – | –
10 | CC(C)(C)CCN1C[C@H]2C[C@H](CNc3ccc(-c4cc(F)ccc4Cl)nn3)C[C@H]2C1 [Compound 70, N-[[(3aR,5s,6aS)-2-(3,3-dimethylbutyl)-3,3a,4,5,6,6a-hexahydro-1H-cyclopenta[c]pyrrol-5-yl]methyl]-6-(2-chloro-5-fluoro-phenyl)pyridazin-3-amine] | 19.2 | 2.64 | – | –
11 | Fc1ccc(Cl)c(-c2ccc(N[C@H]3C[C@@H]4CN(Cc5ccco5)C[C@@H]4C3)nn2)c1 [Compound 176, (3aR,5s,6aS)-N-[6-(2-chloro-5-fluoro-phenyl)pyridazin-3-yl]-2-(2-furylmethyl)-3,3a,4,5,6,6a-hexahydro-1H-cyclopenta[c]pyrrol-5-amine] | – | – | 3 | 26.1

Continued, values first:

Row | IC50 (Table 9) [nM] | Emin (Table 9) [%] | Human M4 Emin (Table 10) [%] | IC50 (Table 10) [nM] | Molecule
12 | 45.8 | 3.96 | – | – | Cc1nn(C)cc1-c1ccc(N[C@H]2C[C@@H]3CN(Cc4ccccn4)C[C@@H]3C2)nn1 [Compound 9, (3aR,5s,6aS)-N-[6-(1,3-dimethylpyrazol-4-yl)pyridazin-3-yl]-2-(2-pyridylmethyl)-3,3a,4,5,6,6a-hexahydro-1H-cyclopenta[c]pyrrol-5-amine]
13 | – | – | 3 | 65 | Fc1ccc(Cl)c(-c2ccc(N[C@H]3C[C@@H]4CN(Cc5cnc6ccccc6c5)C[C@@H]4C3)nn2)c1 [Compound 164, (3aR,5s,6aS)-N-[6-(2-chloro-5-fluoro-phenyl)pyridazin-3-yl]-2-(3-quinolylmethyl)-3,3a,4,5,6,6a-hexahydro-1H-cyclopenta[c]pyrrol-5-amine]
14 | – | – | 3 | 29.7 | Fc1cccc(CN2C[C@H]3C[C@H](Nc4ccc(-c5cc(F)ccc5Cl)nn4)C[C@H]3C2)c1 [Compound 175, (3aR,5s,6aS)-N-[6-(2-chloro-5-fluoro-phenyl)pyridazin-3-yl]-2-[(3-fluorophenyl)methyl]-3,3a,4,5,6,6a-hexahydro-1H-cyclopenta[c]pyrrol-5-amine]
15 | – | – | 9 | 1.25 | c1ccc(-c2ccc(N[C@H]3C[C@@H]4CN(CC5CCOCC5)C[C@@H]4C3)nn2)cc1 [Compound 197, (3aR,5s,6aS)-N-(6-phenylpyridazin-3-yl)-2-(tetrahydropyran-4-ylmethyl)-3,3a,4,5,6,6a-hexahydro-1H-cyclopenta[c]pyrrol-5-amine]
16 | 154 | 3.63 | – | – | Fc1ccc(Cl)c(-c2ccc(O[C@@H]3C[C@@H]4CN(CC5CCCCC5)C[C@@H]4C3)nn2)c1 [Compound 56, (3aR,5r,6aS)-5-[6-(2-chloro-5-fluoro-phenyl)pyridazin-3-yl]oxy-2-(cyclohexylmethyl)-3,3a,4,5,6,6a-hexahydro-1H-cyclopenta[c]pyrrole]
17 | – | – | 4 | 84.3 | CC1(CN2C[C@H]3C[C@H](Nc4ccc(-c5cc(F)ccc5Cl)nn4)C[C@H]3C2)COC1 [Compound 171, (3aR,5s,6aS)-N-[6-(2-chloro-5-fluoro-phenyl)pyridazin-3-yl]-2-[(3-methyloxetan-3-yl)methyl]-3,3a,4,5,6,6a-hexahydro-1H-cyclopenta[c]pyrrol-5-amine]
18 | – | – | 14 | 7.94 | c1coc(-c2ccc(N[C@H]3C[C@@H]4CN(CC5CCOCC5)C[C@@H]4C3)nn2)c1 [Compound 188, (3aR,5s,6aS)-N-[6-(2-furyl)pyridazin-3-yl]-2-(tetrahydropyran-4-ylmethyl)-3,3a,4,5,6,6a-hexahydro-1H-cyclopenta[c]pyrrol-5-amine]
19 | 659 | 4.74 | – | – | CCC(C)CN1C[C@H]2CC(COc3ccc(-c4cn(C)nc4C)nn3)C[C@H]2C1 (stereo partly drawn) [Compound 95, (3aR,6aS)-5-[[6-(1,3-dimethylpyrazol-4-yl)pyridazin-3-yl]oxymethyl]-2-(2-methylbutyl)-3,3a,4,5,6,6a-hexahydro-1H-cyclopenta[c]pyrrole]
20 | 8080 | 18.1 | – | – | Cc1cnn(C)c1-c1ccc(OCC2C[C@@H]3CN(Cc4ccccn4)C[C@@H]3C2)nn1 (stereo partly drawn) [Compound 89, (3aR,6aS)-5-[[6-(2,4-dimethylpyrazol-3-yl)pyridazin-3-yl]oxymethyl]-2-(2-pyridylmethyl)-3,3a,4,5,6,6a-hexahydro-1H-cyclopenta[c]pyrrole]
21 | – | – | 3 | 45.1 | Fc1ccc(Cl)c(-c2ccc(N[C@H]3C[C@@H]4CN(Cc5ccoc5)C[C@@H]4C3)nn2)c1 [Compound 178, (3aR,5s,6aS)-N-[6-(2-chloro-5-fluoro-phenyl)pyridazin-3-yl]-2-(3-furylmethyl)-3,3a,4,5,6,6a-hexahydro-1H-cyclopenta[c]pyrrol-5-amine]
22 | – | – | 5 | 124 | Cc1nn(C)cc1-c1cnc(N[C@H]2C[C@@H]3CN(CCC(C)(C)C)C[C@@H]3C2)cn1 [Compound 153, (3aR,5s,6aS)-2-(3,3-dimethylbutyl)-N-[5-(1,3-dimethylpyrazol-4-yl)pyrazin-2-yl]-3,3a,4,5,6,6a-hexahydro-1H-cyclopenta[c]pyrrol-5-amine]
23 | 10 | 3.22 | – | – | Cc1nn(C)cc1-c1ccc(N[C@H]2C[C@@H]3CN(Cc4ccccc4)C[C@@H]3C2)nn1 [Compound 8, (3aR,5s,6aS)-2-benzyl-N-[6-(1,3-dimethylpyrazol-4-yl)pyridazin-3-yl]-3,3a,4,5,6,6a-hexahydro-1H-cyclopenta[c]pyrrol-5-amine]
